According to article PMC11435625, “In Vitro Hepatic Clearance Evaluations of Per- and Polyfluoroalkyl Substances (PFAS) across Multiple Structural Categories” (Toxics, 2024):

How the values were obtained:
[1] = system: pooled primary human hepatocyte suspensions; assay: Hepatic clearance assay (substrate depletion, LC-MS); conditions: in µL/min/10^6 cells; for CLint for HTTK: CLint value carried into HTTK/IVIVE; for in vitro CLint exp assay / Unadj Clint: pooled primary human hepatocyte suspensions; for Unadj Clint: unadjusted hepatic intrinsic clearance, Table S4
Experimental: The rate of hepatic clearance was determined as previously described for a set of PFAS [11]. Analysis was conducted across two laboratories at the Division of Translational Toxicology (DTT) at the National Institute of Environmental Health Sciences (NIEHS) and the Center for Computational Toxicology and Exposure at the USEPA. The PFAS analyzed in each lab can be found in the Supplementary Materials.
The hepatic clearance assay was performed at both the DTT and EPA laboratories as described below. The pooled human hepatocyte suspensions used in this work were purchased commercially and meet the ethical and scientific standards described in the Human Ethics Rule (40 CFR 26). The suspensions were prepared from hepatocytes obtained from de-identified donors by a commercial vendor.
PFAS stock solutions prepared in DMSO were added to prewarmed William’s E medium to make a 2X working stock solution (2 µM). […] The working stock solutions were then transferred to a 96-well polypropylene plate and placed in an incubator at 37 °C with 5% carbon dioxide prior to adding cells. Cryopreserved pooled primary human hepatocyte suspensions (50-donor pool, mixed gender; BioIVT; Westbury, NY, USA) were thawed and transferred to vials containing hepatocyte thawing medium. After centrifuging for 5–10 min at 100× g, thawing medium was removed, being careful not to disturb the cell pellet. The primary human hepatocytes were then resuspended in pre-warmed complete Williams E medium to achieve a cell density of ~1.0 × 10^6 viable cells/mL as determined by Trypan Blue exclusion. Cells were then added to the 96-well incubation plates containing PFAS to achieve a final density of ~0.5 × 10^6 viable cells/mL and a 1 μM assay concentration (Ctest), then placed in incubator on a shaker at 300 rpm. Triplicate samples were removed from the incubator at time points ranging from 0 to 240 min and quenched with a total crash in 2–3 volumes of ice-cold acetonitrile. Samples were spun at 4000× g for 20 min, and supernatants were transferred to new tubes and stored at <−70 °C until analysis. Media-only (no cell) and/or heat-inactivated hepatocytes were included as negative controls for each chemical to evaluate and estimate chemical loss due to nonmetabolic processes (e.g., hydrolysis). Phenacetin was included in all runs as an assay reference compound; EPA also included propranolol as an additional reference compound.
Assay samples were diluted in mobile phase and analyzed using a Thermo Vanquish UPLC system with a Thermo Hypersil Gold aQ C18 column (100 × 2.1 mm, 1.9 […], Thermo Fisher Scientific Inc.) coupled to a Q Exactive Plus mass spectrometer. Gradient elution was used in the chromatographic separations using water with 20 mM ammonium acetate (mobile phase A) and methanol (mobile phase B), with the following gradient program: 0.5–7 min, 30%–90% B; 7–8 min, 90% B; 8–9 min, 90%–30% B; and 9–10 min, 30% B. The first minute of each injection was diverted to waste to avoid introduction of excessive salts from incubation medium. Analysis was detected in negative ion mode. Samples were quantified against an external, matrix-matched calibration curve. Additional methodologic information is available in Table S2.
To perform SPE, a positive-pressure manifold was employed along with Oasis WAX µElution plates and Oasis HLB 30 mg plates (Waters, Milford, MA, USA) for PFAS and positive-control extraction, respectively. […] The sorbent was then washed with 1% formic acid and water. Samples were eluted in 2% ammonia in methanol for analysis. Similarly, HLB plates were conditioned with methanol and water before sample was loaded onto the sorbent. The wells were then washed with 5% methanol in water and water before elution in methanol. For samples not undergoing SPE, the supernatant of the crashed assay sample was diluted in mobile phase prior to analysis. The first 1.5 min of the run was diverted to waste to prevent salt contamination.

[2] = system: plasma protein; conditions: fraction unbound in plasma, input for IVIVE calculations; cited from earlier work
[3] = IVIVE: steady-state concentration (Css), generic HTTK model; parameters: species or system human; conditions: for Css (mg/L) / Css (uM): Assuming 1 mg/kg/day dose rate, BW 70 kg; for CLhep: QL 1500000 uL/min; for Fub: fub=fup/(B:P), Fub set to 1 if needed; for CLint: scaled to whole liver: HPGL 110 mill cells/g, Vl 1596 g
Experimental: IVIVE was performed as previously described to calculate human steady-state concentrations (Css). Briefly, experimental plasma protein binding data presented elsewhere were transformed to fraction unbound in blood using blood-to-plasma partitioning values. Experimental Clint values generated here are used in conjunction with relevant liver scalars to scale up to estimate whole liver clearance. […] Once Css values were established, these were used with the PFAS-specific in vitro POD data to calculate the administered equivalent doses (AEDs) using reverse dosimetry. […] The fifth-percentile AC50 value was used to define the in vitro POD. All relevant inputs, scalars, and calculations are provided in Supplementary Information, as indicated in the results.

Structure (SMILES) | CLint for HTTK [1] | in vitro CLint exp assay [1] | Mean fu [2] | Css (mg/L) [3] [mg/L] | Css (uM) [3] [µM] | CLhep [3] [L/h] | Fub [3] | CLint [3] [µL/min] | Unadj Clint [1]
O=C(O)CCC(F)(F)C(F)(F)C(F)(F)F | 0 | 0 | 0.0518 | 4.66 | 19.25 | 0.000 | 0.09418 | 0 | 
CCNS(=O)(=O)C(F)(F)C(F)(F)C(F)(F)C(F)(F)C(F)(F)C(F)(F)C(F)(F)C(F)(F)F | 8.96 | 8.96 | 0.0289 | 0.58 | 1.10 | 4.700 | 0.05255 | 1573018 | 
CNS(=O)(=O)C(F)(F)C(F)(F)C(F)(F)C(F)(F)C(F)(F)C(F)(F)C(F)(F)C(F)(F)F | 23.23 | 23.23 | 0.0117 | 0.58 | 1.13 | 4.921 | 0.02127 | 4078259 | 
O=C(Cl)C(F)(F)C(F)(F)C(F)(F)C(F)(F)C(F)(F)C(F)(F)C(F)(F)F | 0 | 0 | 0.0001 | 3584.17 | 8297.84 | 0.000 | 0.0001224 | 0 | 
O=S(=O)(Cl)C(F)(F)C(F)(F)C(F)(F)C(F)(F)C(F)(F)C(F)(F)C(F)(F)C(F)(F)F | 0 | 0.00 | 0.0109 | 41.78 | 80.68 | 0.000 | 0.0105 | 0 | 
O=C(O)C(F)(F)C(F)(F)OC(F)(F)F | 0 | 0 | 0.0764 | 3.16 | 13.74 | 0.000 | 0.1389 | 0 | 
O=C(O)C(F)(F)C(F)(F)C(F)(F)OC(F)(C(F)(F)F)C(F)(F)F | 5.78 | 5.78 | 0.0021 | 11.42 | 30.05 | 0.232 | 0.003818 | 1014737 | 
O=C(O)C(F)(F)C(F)(F)C(F)(F)OC(F)(F)F | 1.5 | 1.5 | 0.0117 | 6.16 | 22.00 | 0.335 | 0.02127 | 263340 | 
C[N+](C)(C)CCCNS(=O)(=O)C(F)(F)C(F)(F)C(F)(F)C(F)(F)C(F)(F)C(F)(F)C(F)(F)C(F)(F)F.[I-] | 0 | 0 | 0.0126 | 19.15 | 31.97 | 0.000 | 0.02291 | 0 | 4.28
O=S(=O)([O-])C(F)(F)C(F)(F)C(F)(F)C(F)(F)C(F)(F)C(F)(F)F.[K+] | 0 | 0 | 0.001 | 241.34 | 603.44 | 0.000 | 0.001818 | 0 | 
O=S(=O)([O-])C(F)(F)C(F)(F)C(F)(F)C(F)(F)C(F)(F)C(F)(F)C(F)(F)C(F)(F)F.[K+] | 0 | 2.96 | 0.004 | 60.34 | 120.69 | 0.000 | 0.007273 | 0 | 
O=S(=O)(OCC(F)(F)F)C(F)(F)C(F)(F)C(F)(F)C(F)(F)F [2,2,2-Trifluoroethyl perfluorobutanesulfonate] | 0 | 0.00 | 0.0039 | 65.09 | 170.41 | 0.000 | 0.006742 | 0 | 2.84
O=C(O)C(F)(F)C(F)(F)C(F)F [4H-Perfluorobutanoic acid] |  |  |  |  |  |  |  |  | 0.90
O=C(O)CCC(F)(F)C(F)(F)C(F)(F)C(F)(F)C(F)(F)C(F)(F)F [6:3 Fluorotelomer carboxylic acid] |  |  |  |  |  |  |  |  | 5.05
N.O=C(O)C(F)(F)C(F)(F)C(F)(F)C(F)(F)C(F)(F)C(F)(F)C(F)(F)F [Ammonium perfluorooctanoate] |  |  |  |  |  |  |  |  | 2.06
O=C(O)C(F)(F)C(F)(F)C(F)(F)OC(F)(F)F [Perfluoro(4-methoxybutanoic) acid] |  |  |  |  |  |  |  |  | 1.50
O=S(=O)(Cl)C(F)(F)C(F)(F)C(F)(F)C(F)(F)C(F)(F)C(F)(F)C(F)(F)C(F)(F)F [Perfluoro-1-octanesulfonyl chloride] |  |  |  |  |  |  |  |  | 0.00
O=C(O)C(F)(F)OC(F)(F)C(F)(F)OC(F)(F)F [Perfluoro-3,6-dioxaheptanoic acid] |  |  |  |  |  |  |  |  | 0.00
O=C(O)C(F)(F)C(F)(F)C(F)(F)F [Perfluorobutanoic acid] |  |  |  |  |  |  |  |  | 0.08
O=C(O)C(F)(F)C(F)(F)F [Perfluoropropanoic acid] |  |  |  |  |  |  |  |  | 0.59
O=C(O)C(F)(F)C(F)(F)C(F)(F)C(F)(F)C(F)(F)C(F)(F)C(F)(F)C(F)(F)C(F)(F)C(F)(F)C(F)(F)C(F)(F)C(F)(F)F [Perfluorotetradecanoic acid] |  |  |  |  |  |  |  |  | 0.00
O=C(O)C(F)(F)C(F)(F)C(F)(F)C(F)(F)C(F)(F)C(F)(F)C(F)(F)C(F)(F)C(F)(F)C(F)(F)F [Perfluoroundecanoic acid] |  |  |  |  |  |  |  |  | 0.00
O=S(=O)([O-])C(F)(F)C(F)(F)C(F)(F)C(F)(F)F.[K+] [Potassium perfluorobutanesulfonate] |  |  |  |  |  |  |  |  | 0.00
O=S(=O)([O-])C(F)(F)C(F)(F)C(F)(F)C(F)(F)C(F)(F)C(F)(F)C(F)(F)C(F)(F)F.[K+] [Potassium perfluorooctanesulfonate] |  |  |  |  |  |  |  |  | 2.96
O=C([O-])C(F)(F)C(F)(F)C(F)(F)C(F)(F)C(F)(F)C(F)(F)C(F)(F)F.[K+] [Potassium perfluorooctanoate] |  |  |  |  |  |  |  |  | 0.00
O=S(=O)([O-])C(F)(F)C(F)(F)C(F)(F)C(F)(F)C(F)(F)C(F)(F)C(F)(F)C(F)(F)C(F)(F)C(F)(F)F.[Na+] [Sodium perfluorodecanesulfonate] |  |  |  |  |  |  |  |  | 3.39
O=C(O)C(F)(F)C(F)(F)C(F)(F)C(F)(F)C(F)(F)C(F)(F)C(F)(F)F [Sodium perfluorooctanoate] |  |  |  |  |  |  |  |  | 2.34
